The numbers were not newly measured in patent publication US20080221033A1, “Monitoring of Cardiac Natriuretic Peptides During Diagnosis, Management, and Treatment of Cardiac Diseases” (Koninklijke Philips Electronics N. V., priority 2005, published 2008), which cites them from elsewhere.

Where two headings read alike, the source gives them in different places.

Data set [1] deals with patients hospitalized with congestive heart failure.
The mark [2] stands for this setting: patients hospitalized with congestive heart failure.

Consider nesiritide, for which the “effectiveness versus parenteral vasodilators and inotropic agents” value in data set [1] (decompensated heart failure, vs nitroprusside, nitroglycerin, dobutamine, milrinone) is reported as “more effective”. In data set [1] (human, in vivo), the onset of action is given as 15 min; the “tolerability versus parenteral vasodilators and inotropic agents” value is reported as “better tolerated”. Also, in data set [1] (setting [2]), the pulmonary arterial pressure result was “reduces”, the “pulmonary capillary wedge pressure” value is “reduces”, the right atrial pressure entry was “reduces” and the systemic vascular resistance entry is given as “reduces”. The “onset of therapeutic action” value in data set [1] (typical cardiac patients) was “about 15 minutes”.
For the molecule brain natriuretic peptide [BNP], the “terminal half-life in the bloodstream (in words)” value (in vivo) is “a few minutes to a few hours”.

B1: N-terminal pro-BNP (protein, UniProt P16860 27-102, looked up)
NT-proBNP: HPLGSPGSASDLETSGLQEQRNHLQGKLSELQVEQTSLEPLQESPRPTGVWKSREVATEGIRGHRKMVLYTLRAPR
modifications: NT-proBNP
B1: for the setting “bloodstream, 'believed to be'”, the “terminal half-life in the bloodstream (in words)” value was “about a month or longer”.
